Measurements as given in patent US4933347A, “Diamidines and bis(imidazolines) for the treatment of and prophylaxis against pneumocystis carinii pneumonia” (University of North Carolina at Chapel Hill, priority 1988, dated 1990).

System: Pneumocystis carinii
Test: Treatment of Pneumocystis carinii pneumonia in Sprague-Dawley rats (extent of disease by histologic score)
Format: in vivo, male Sprague-Dawley rats
Conditions: for Extent of Disease by Histologic Score: number of animals with score 0.5 / Extent of disease by histologic score (combined): number of animals in scoring group 0.5: 0.5 = <10 cysts found per 2 sections; for Extent of Disease by Histologic Score: number of animals with score 1 / Extent of disease by histologic score (combined): number of animals in scoring group 1: 1 = scattered cysts, <5% of lung involved; for Extent of Disease by Histologic Score: number of animals with score 2 / Extent of disease by histologic score (combined): number of animals in scoring group 2: 2 = scattered cysts; for Extent of Disease by Histologic Score: number of animals with score 2: 5-10% lung involved or small foci of infection; for Extent of Disease by Histologic Score: number of animals with score 3 / Extent of disease by histologic score (combined): number of animals in scoring group 3: 3 = scattered cysts; for Extent of disease by histologic score (combined): number of animals in scoring group 0.5 / Extent of disease by histologic score (combined): number of animals in scoring group 1 / Extent of disease by histologic score (combined): number of animals in scoring group 2 / Extent of disease by histologic score (combined): number of animals in scoring group 3 / Extent of disease by histologic score (combined): number of animals in scoring group 4: Table XII composite; for Extent of disease by histologic score (combined): number of animals in scoring group 2: 5-10% of lung involved; for Efficacy in treating PCP compared with related compounds of the series: effect of chain length or substituent; for Efficacy in treating PCP compared with control / Efficacy in treating PCP compared with pentamidine: 10 mg/kg unless otherwise noted
Procedure: Induction and Treatment Of Pneumocystis Carinii in Sprague-Dawley Rats
Male Sprague-Dawley rats, barrier raised, non-certified virus free, weighing 150-200g were obtained from Hilltop Laboratories and housed individually. Animals were begun on a low (8%) protein diet (ICN Biomedicals, Cincinnati, OH) and drinking water containing tetracycline (0.5 mg/ml) and dexamethasone (1.0 μg/ml) immediately upon arrival. This treatment was given for the next 8 weeks, monitoring fluid intake daily and weighing animals weekly. Dilutions of the drinking solution were made when animals consumed too much fluid so as to prevent cortisone poisoning. At the beginning of the sixth week, animals were divided into groups of 8 animals each and the test compounds were administered daily by i.v. injection at a dose of 10 mg/kg, unless otherwise noted, for the next 14 days.
Animals were sacrificed at the end of the eighth week by chloroform inhalation and the left lung was removed aseptically and placed in sterile Hank's balanced salts solution without calcium or magnesium (HBSS-) for the ground tissue procedure. The right lung was inflated in situ with 10% […] and removed for histologic examination GMS staining. […]

[1] = 10 mg/kg i.v. daily, 14 days, 10-50% of lung involved with some intense areas of infection
[2] = 10 mg/kg i.v. daily, 14 days, 4 = >50% of lung involved with many intense areas of focal infection
[3] = 10 mg/kg, 10-50% of lung involved
[4] = 10 mg/kg, 4 = >50% of lung involved
[5] = 1.25 mg/kg (dose from Table XII footnote e)

| Compound | Extent of Disease by Histologic Score: number of animals with score 0.5 (10 mg/kg i.v. daily, 14 days) | Extent of Disease by Histologic Score: number of animals with score 1 (10 mg/kg i.v. daily, 14 days) | Extent of Disease by Histologic Score: number of animals with score 2 (10 mg/kg i.v. daily, 14 days) | Extent of Disease by Histologic Score: number of animals with score 3 [1] | Extent of Disease by Histologic Score: number of animals with score 4 [2] | Extent of disease by histologic score (combined): number of animals in scoring group 0.5 (10 mg/kg) | Extent of disease by histologic score (combined): number of animals in scoring group 1 (10 mg/kg) | Extent of disease by histologic score (combined): number of animals in scoring group 2 (10 mg/kg) | Extent of disease by histologic score (combined): number of animals in scoring group 3 [3] | Extent of disease by histologic score (combined): number of animals in scoring group 4 [4] | Efficacy in treating PCP compared with pentamidine | further results |
| --- | --- | --- | --- | --- | --- | --- | --- | --- | --- | --- | --- | --- |
| N=C(N)c1ccc(NCCCNc2ccc(C(=N)N)cc2N)c(N)c1 [Example 36] | 1 animals | 4 animals | 2 animals | 0 animals | 0 animals | 1 animals | 4 animals | 2 animals | 0 animals | 0 animals | – | Efficacy in treating PCP compared with related compounds of the series: better than the nitro substituted compounds |
| N=C(N)c1cccc(OCCCCCOc2cccc(C(=N)N)c2)c1 [Example 28] | – | – | – | – | – | 4 animals | 3 animals | 6 animals | 2 animals | 1 animals | – | – |
| N=C(N)c1ccc(OCCOc2ccc(C(=N)N)cc2N)c(N)c1 [Example 3] | 4 animals | 4 animals | 0 animals | 0 animals | 0 animals | 4 animals | 4 animals | 0 animals | 0 animals | 0 animals | approximately comparable to pentamidine in efficacy | Efficacy in treating PCP compared with control: significantly better than the control |
| N=C(N)c1ccc(NCCCCNc2ccc(C(=N)N)cc2N)c(N)c1 [Example 37] | 0 animals | 4 animals | 3 animals | 1 animals | 0 animals | 0 animals | 4 animals | 3 animals | 1 animals | 0 animals | – | Efficacy in treating PCP compared with related compounds of the series: better than the nitro substituted compounds |
| N=C(N)c1ccc(OCCCOc2ccc(C(=N)N)cc2)cc1 [Example 4] | 3 animals | 4 animals | 1 animals | 0 animals | 0 animals | 3 animals | 4 animals | 1 animals | 0 animals | 0 animals | better at controlling the extent of the pcp infection than either para- or meta- pentamidine | – |
| N=C(N)c1ccc(NCCNc2ccc(C(=N)N)cc2N)c(N)c1 [Example 33] | 0 animals | 0 animals | 4 animals | 3 animals | 1 animals | 0 animals | 0 animals | 4 animals | 3 animals | 1 animals | worse than pentamidine | Efficacy in treating PCP compared with control: better than the control |
| N=C(N)c1cccc(OCCCOc2cccc(C(=N)N)c2)c1 [Example 26] | 2 animals | 1 animals | 4 animals | 1 animals | 0 animals | 2 animals | 1 animals | 4 animals | 1 animals | 0 animals | – | – |
| N=C(N)c1ccc(OCCCCCCOc2ccc(C(=N)N)cc2[N+](=O)[O-])c([N+](=O)[O-])c1 [Example 21] | – | – | – | – | – | – | – | – | – | – | – | Extent of Disease by Histologic Score: number of animals with score 0.5 [5]: 4 animals; Extent of Disease by Histologic Score: number of animals with score 1 [5]: 1 animals; Extent of Disease by Histologic Score: number of animals with score 2 [5]: 1 animals; Extent of Disease by Histologic Score: number of animals with score 3 (1.25 mg/kg (dose from Table XII footnote e), 10-50% of lung involved): 0 animals; Extent of Disease by Histologic Score: number of animals with score 4 (1.25 mg/kg (dose from Table XII footnote e), 4 = >50% of lung involved): 0 animals; Extent of disease by histologic score (combined): number of animals in scoring group 0.5 (tested at 1.25 mg/kg): 4 animals; Extent of disease by histologic score (combined): number of animals in scoring group 1 (tested at 1.25 mg/kg): 1 animals; Extent of disease by histologic score (combined): number of animals in scoring group 2 (tested at 1.25 mg/kg): 1 animals; Extent of disease by histologic score (combined): number of animals in scoring group 3 (tested at 1.25 mg/kg, 10-50% of lung involved): 0 animals; Extent of disease by histologic score (combined): number of animals in scoring group 4 (tested at 1.25 mg/kg, 4 = >50% of lung involved): 0 animals |
| N=C(N)c1cccc(OCCCCOc2cccc(C(=N)N)c2)c1 [Example 27] | 2 animals | 1 animals | 1 animals | 3 animals | 0 animals | 2 animals | 1 animals | 1 animals | 3 animals | 0 animals | – | – |
